In US5071835A, “Ribonucleotide reductase inhibitors” (Bio-Mega Inc., priority 1989, dated 1991):
pIC50: −log10 of the molar value. Non-standard residues stand in square brackets, D forms with d. Residues, ends and D or L forms follow the SMILES beside them. No end group written: not given here. hPhe = N[C@@H](CCc1ccccc1)C(=O)O; NMeD = CN[C@@H](CC(=O)O)C(=O)O; NMeL = CN[C@@H](CC(C)C)C(=O)O; NMeV = CN[C@H](C(=O)O)C(C)C

Each molecule was assayed against T1, human ribonucleotide reductase (hRR) (Homo sapiens, UniProt P23921) (assay: Inhibition of Human Ribonucleotide Reductase Assay). Conditions: Hela cell extract; conversion of (14C)CDP to (14C)dCDP; text of Example 3; read-out: IC50.
T1 construct: Preparation of cell extract containing human ribonucleotide reductase (hRR); endogenous in cells; host or cells: HeLa cells (ATCC CCL 2.2); extract cleared with streptomycin sulphate, 50% ammonium sulphate cut, diafiltered
T1 sequence (P23921 1-792): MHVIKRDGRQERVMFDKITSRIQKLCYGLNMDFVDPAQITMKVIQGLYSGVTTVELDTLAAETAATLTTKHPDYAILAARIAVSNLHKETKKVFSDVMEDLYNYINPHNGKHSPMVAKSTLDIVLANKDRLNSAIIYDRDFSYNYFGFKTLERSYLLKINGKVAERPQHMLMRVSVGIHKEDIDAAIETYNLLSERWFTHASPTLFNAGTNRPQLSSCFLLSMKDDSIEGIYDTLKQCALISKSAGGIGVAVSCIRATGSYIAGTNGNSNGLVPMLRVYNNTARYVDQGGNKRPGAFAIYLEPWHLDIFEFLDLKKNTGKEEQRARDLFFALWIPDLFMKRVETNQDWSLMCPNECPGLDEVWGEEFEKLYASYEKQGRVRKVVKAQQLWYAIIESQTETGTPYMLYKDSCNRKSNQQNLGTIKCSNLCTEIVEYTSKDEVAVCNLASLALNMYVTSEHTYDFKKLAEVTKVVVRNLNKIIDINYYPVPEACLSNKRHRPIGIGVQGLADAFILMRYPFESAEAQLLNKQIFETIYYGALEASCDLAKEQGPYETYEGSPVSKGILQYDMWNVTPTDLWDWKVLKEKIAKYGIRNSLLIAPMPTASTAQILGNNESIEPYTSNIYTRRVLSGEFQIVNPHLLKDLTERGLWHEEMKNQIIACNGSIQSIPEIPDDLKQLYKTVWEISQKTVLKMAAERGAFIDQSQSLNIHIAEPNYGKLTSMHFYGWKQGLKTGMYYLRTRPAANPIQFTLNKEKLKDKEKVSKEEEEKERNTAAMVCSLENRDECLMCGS
Type: biochemical
Description: Inhibition of Human Ribonucleotide Reductase Assay
(a) Cell line: Hela cells (ATCC CCL 2.2), human epitheloid carcinoma, cervix.
(b) Cell culture: Cells were incubated in a medium consisting of Iscove's Modified Dulbecco Medium, pH 7.2-7.4 (Gibco Canada Inc., Burlington, ON, Canada) supplemented with 10% by volume of fetal calf serum, heat inactivated (Gibco Canada Inc.), 1 millimolar (mM) of sodium pyruvate, 100 units/ml of penicillin G, 100 μg/ml of streptomycin and 2 mM of L-glutamine. The incubation was done in a 1 l spinner flask at 37° C. under a mixture of 5% CO2 in air. Cell-containing media (75% of culture volume) was withdrawn semicontinuously at 24-48 h intervals. Fresh media was added each time to replace withdrawn media. Final cell density at harvest was 1-2×10^6 cells/ml.
(c) Preparation of cell extract containing human ribonucleotide reductase (hRR)
The harvested culture media obtained above was subjected to low speed centrifugation. The resulting cell pellet was processed according to the following steps. (All steps were performed at 4° C. unless noted otherwise.) […]
(a) Standard Reaction Mixture […]
The activity of RR was quantitated by following the conversion of radiolabeled cytidine diphosphate to radiolabeled deoxycytidine diphosphate, i.e. (^14 C)CDP to (^14 C)dCDP. The amount of cell extract utilized in the assay was that which gave a linear response between enzyme concentration and CDP conversion (ca. 200 μg of protein per assay).
After addition of the cell extract, the assay mixture was incubated at 37° C. for 30 min. The reaction was stopped by immersing the vessel containing the assay mixture in boiling water for 4 min. Nucleotides in the supernatant were then converted to nucleosides by the addition of excess Crotalus adamenteus snake venom (ca. 20 μl of a preparation of 40 mg/ml of the venom in an aqueous solution of 14 mM tris(hydroxymethyl)aminomethane (pH 8.8) and 46.5 mM MgCl2), followed by incubating the resulting mixture for 60 min at 37° C. The enzymatic reaction was stopped by immersing the vessel containing the reaction mixture in boiling waster for 6 min. Thereafter, the mixture is centrifuged at 10,000 rpm on a clinical centrifuge for 5 min.
The resulting free nucleosides, cytidine (C) and deoxycytidine (dC), in the supernatant were separated by thin layer chromatography on polyethyleneimine-cellulose plates pretreated with boric acid. Elution of 5 μl samples was accomplished using a solution of ethanol/20 mM aqueous ammonium formate (1:1), pH 4.7. Quantitation of radiolabel migrating as C and dC was carried out using radioanalytical imaging equipment (AMBIS Systems Inc., San Diego, CA, USA). substrate conversion was calculated as: [formula]
A unit of ribonucleotide reductase activity is defined as that amount which reduces one nmole of CDP/minute under the conditions described above. Activity was calculated from substrate conversion using the following relationship: [formula]
The conversion factor for the Hela assay was 0.108. Specific activity was expressed as units/mg of protein in the incubation mixture.
The peptides of formula 1 were tested at a minimum of three concentrations. IC50 's were estimated from graphs plotting the results for each peptide, the IC50 being the concentration of the peptide in micromoles (μM) producing 50% of the maximal inhibition of the enzyme.

Work on “Ac-FTLDADF [Example 2, AcPhe-Thr-Leu-Asp-Ala-Asp-Phe-OH]” yielded a pIC50 of 4.42.

Same assay, conditions: Hela cell extract; table of Example 4; read-out: IC50

Point of comparison: “H-VISNSTENSFTLDADF-OH [H--Val--Ile--Ser--Asn--Ser--Thr--Glu--Asn--Ser--Phe--Thr--Leu--Asp--Ala--Asp--Phe--OH]”, pIC50 4.31. Against it:
- Ac-TENSFTLDADF [AcThr--Glu--Asn--Ser--Phe--Thr--Leu--Asp--Ala--Asp--Phe--OH] — 0.23 log units lower, 4.08
- H-TENSFTLDADF-OH [H--Thr--Glu--Asn--Ser--Phe--Thr--Leu--Asp--Ala--Asp--Phe--OH] — 0.29 log units lower, 4.02
- Ac-NSFTLDADF-OH [Ac--Asn--Ser--Phe--Thr--Leu--Asp--Ala--Asp--Phe--OH] — within 0.2 log units, 4.48
- H-NSTENSFTLDADF-OH [H--Asn--Ser--Thr--Glu--Asn--Ser--Phe--Thr--Leu--Asp--Ala--Asp--Phe--OH] — within 0.2 log units, 4.21

Same assay, conditions: inhibition of human RR assay; list after the table; unit μM; read-out: IC50 (shown in parenthesis)

Point of comparison: `CC(=O)N[C@@H](Cc1ccccc1)C(=O)N[C@H](C(=O)N[C@@H](CC(C)C)C(=O)N[C@@H](CC(=O)N(C)C)C(=O)N[C@@H](C)C(=O)N[C@@H](CC(=O)O)C(=O)N[C@@H](Cc1ccccc1)C(=O)O)[C@@H](C)O` [AcPhe-Thr-Leu-Asp(NMe2)-Ala-Asp-Phe-OH] (Ac-FTLD(NMe2)ADF-OH), IC50 58 µM. Against it:
- CC(=O)N[C@@H](Cc1ccccc1)C(=O)N[C@H](C(=O)N(C)[C@@H](CC(C)C)C(=O)N[C@@H](CC(=O)O)C(=O)N[C@@H](C)C(=O)N[C@@H](CC(=O)O)C(=O)N[C@@H](Cc1ccccc1)C(=O)O)[C@@H](C)O [AcPhe-Thr-N-Me-Leu-Asp-Ala-Asp-Phe-OH] (Ac-FT[NMeL]DADF-OH) — 2.5-fold lower, 23 µM
- Ac-FTFNEDF [AcPhe-Thr-Phe-Asn-Glu-Asp-Phe-OH] — 2.6-fold higher, 150 µM
- Ac-FTLDVDF [AcPhe-Thr-Leu-Asp-Val-Asp-Phe-OH] — within 1.5-fold, 39 µM
- Ac-FTLNADF [AcPhe-Thr-Leu-Asn-Ala-Asp-Phe-OH] — 1.9-fold lower, 31 µM
- H-SPTENSFTLDADF-OH [H-Ser-Pro-Thr-Glu-Asn-Ser-Phe-Thr-Leu-Asp-Ala-Asp-Phe-OH] — 2-fold lower, 29 µM
- Ac-FTLFADF [AcPhe-Thr-Leu-Phe-Ala-Asp-Phe-OH] — within 1.5-fold, 73 µM
- CC(=O)N[C@@H](Cc1ccccc1)C(=O)N[C@H](C(=O)N[C@@H](CC(C)C)C(=O)N[C@H](CC(=O)O)C(=O)N[C@@H](C)C(=O)N[C@@H](CC(=O)O)C(=O)N[C@@H](Cc1ccccc1)C(=O)O)[C@@H](C)O [AcPhe-Thr-Leu-D-Asp-Ala-Asp-Phe-OH] (Ac-FTL[dD]ADF-OH) — 3.4-fold higher, 200 µM
- H-SSPTENSFTLDADF-OH [H-Ser-Ser-Pro-Thr-Glu-Asn-Ser-Phe-Thr-Leu-Asp-Ala-Asp-Phe-OH] — 2.2-fold lower, 26 µM
- Ac-FTLDEDF [AcPhe-Thr-Leu-Asp-Glu-Asp-Phe-OH] — 2.1-fold lower, 28 µM
- Ac-FTLGADF [AcPhe-Thr-Leu-Gly-Ala-Asp-Phe-OH] — 2.6-fold higher, 150 µM
- Ac-FTLQADF [AcPhe-Thr-Leu-Gln-Ala-Asp-Phe-OH] — 2.1-fold higher, 120 µM
- CC(=O)N[C@@H](Cc1ccccc1)C(=O)N[C@H](C(=O)N[C@@H](CC(C)C)C(=O)N[C@@H](CC(=O)O)C(=O)N[C@@H](C)C(=O)N[C@H](CC(=O)O)C(=O)N[C@@H](Cc1ccccc1)C(=O)O)[C@@H](C)O [AcPhe-Thr-Leu-Asp-Ala-D-Asp-Phe-OH] (Ac-FTLDA[dD]F-OH) — 4.8-fold higher, 280 µM
- CC(=O)N[C@@H](Cc1ccccc1)C(=O)N[C@H](C(=O)N[C@@H](CC(C)C)C(=O)N[C@@H](CC(=O)O)C(=O)N[C@H](C)C(=O)N[C@@H](CC(=O)O)C(=O)N[C@@H](Cc1ccccc1)C(=O)O)[C@@H](C)O [AcPhe-Thr-Leu-Asp-D-Ala-Asp-Phe-OH] (Ac-FTLD[dA]DF-OH) — 7.9-fold higher, 460 µM
- CC(=O)N[C@@H](Cc1ccccc1)C(=O)N(C)[C@H](C(=O)N[C@@H](CC(C)C)C(=O)N[C@@H](CC(=O)O)C(=O)N[C@@H](C)C(=O)N[C@@H](CC(=O)O)C(=O)N[C@@H](Cc1ccccc1)C(=O)O)C(C)C [AcPhe-N-Me-Val-Leu-Asp-Ala-Asp-Phe-OH] (Ac-F[NMeV]LDADF-OH) — within 1.5-fold, 48 µM
- H-PTENSFTLDADF-OH [H-Pro-Thr-Glu-Asn-Ser-Phe-Thr-Leu-Asp-Ala-Asp-Phe-OH] — within 1.5-fold, 41 µM
- CC(=O)N[C@@H](Cc1ccccc1)C(=O)N[C@H](C(=O)N[C@@H](CC(C)C)C(=O)N[C@@H](CC(=O)O)C(=O)N[C@@H](C)C(=O)N(C)[C@@H](CC(=O)O)C(=O)N[C@@H](Cc1ccccc1)C(=O)O)[C@@H](C)O [AcPhe-Thr-Leu-Asp-Ala-N-Me-Asp-Phe-OH] (Ac-FTLDA[NMeD]F-OH) — within 1.5-fold, 46 µM
- CC(=O)N[C@@H](Cc1ccccc1)C(=O)N[C@H](C(=O)N[C@@H](CC(C)C)C(=O)N[C@@H](CC(=O)O)C(=O)N[C@@H](C)C(=O)N[C@@H](CC(=O)O)C(=O)N[C@@H](CCc1ccccc1)C(=O)O)[C@@H](C)O [AcPhe-Thr-Leu-Asp-Ala-Asp-homoPhe-OH] (Ac-FTLDAD[hPhe]-OH) — the same, 58 µM
